18 molecules from PMC5711809, “Bayesian Analysis of MicroScale Thermophoresis Data to Quantify Affinity of Protein:Protein Interactions with Human Survivin” (Scientific Reports, 2017) can be followed below.

The target in test [1] is T1, human survivin (Homo sapiens, UniProt O15392).
T1 construct: His8 (pHIS8 vector); made in house; host or cells: E. coli BL21(DE3) star
As to the kind of experiment: MicroScale Thermophoresis (MST) with chemically labelled survivin. It is filed as binding. As to conditions: Buffer B (50 mM Tris pH 7.4, 150 mM NaCl, 10 mM MgCl2, 0.05% Tween-20, 1 mM DTT), 24 °C, three independent dilution series, read-out: KD, Robust (Bayesian). The procedure: Survivin was expressed in E.coli BL21(DE3) star (Merck) cells using the pHIS8 expression vector used by Verdecia et al.[18] The expression was induced at OD600 0.6–0.8 in Luria Bertani (LB) media by 0.5 mM IPTG and incubated during 3–4 h at 30 °C. The cells were harvested at 6000 g during 20 min and resuspended in lysis buffer containing 50 mM Tris pH 8, 500 mM NaCl, 10 mM imidazole, 0.25 mM Pefabloc®SC (Sigma), […] DNAse (Sigma) and 0.2 mg/ml Lysozyme (Sigma). The cells were lysed with a high pressure homogenizer, using 3 cycles of […]. Survivin was purified by Ni^2+ chelation chromatography using 5 ml HisTrap FF column (GE Healthcare). Overnight dialysis in 50 mM Tris pH8, 150 mM NaCl and 1 mM DTT buffer and a gel filtration purification using a Superdex 75 100/300GL column (GE Healthcare) were done before chemical labelling. […] The borealin^6–20, hSgol1^291–312 and hSgol2^1066–1085 peptides were chemically synthetized (Genscript).
MicroScale Thermophoresis experiments were performed according to the NanoTemper technologies protocol in a Monolith NT.115 (green/blue) instrument (NanoTemper Technologies). […]
Survivin was labelled with the MO-L005 Monolith™ Protein Labeling Kit GREEN-MALEIMIDE (Cysteine Reactive) from NanoTemper Technologies. Peptides derived from hSgol1^291–312 ([…]) and hSgol2^1066–1085 ([…]) were analyzed in Buffer B (50 mM Tris pH 7.4, 150 mM NaCl, 10 mM MgCl2, 0.05% Tween-20 and 1 mM DTT). All samples were measured after an incubation of 5 min (according to “User Starting Guide Monolith® NT.115”).
The experiments were performed using 20% and 40% MST power and between 20–80% LED power at 24 °C. The MST traces were recorded using the standard parameters: 5 s MST power off, 30 s MST power on and 5 s MST power off. The reported measurement values are the combination of two effects: the fast, local environment dependent responses of the fluorophore to the temperature jump and the slower diffusive thermophoresis fluorescence changes. […]
A general note: Microscale thermophoresis detects binding through changes in fluorescence in a small temperature gradient.

The target in test [2] is T1, human survivin. As to the kind of experiment: PEPperCHIP peptide microarray, survivin binding to laser printed overlapping peptides. The conditions noted are these: survivin 1, 10 and 100 μg/ml; secondary 6X His Tag Antibody DyLight680 antibody; fluorescence, LI-COR Odyssey; duplicate spots. The protocol:
We tested the Bayesian inference method on potential binding interactions of survivin identified by PEPperCHIP Peptide Microarray (PEPperPRINT, GmbH, Heidelberg, Germany). These microarrays consisted of overlapping peptides originating from candidate proteins from the human proteome including hSgol1, hSgol2 and the N-terminal region of borealin (1–93). The peptides were generated by peptide laser printing[25] (Fig. 2). […] The spots are consistently visible at 1, 10 and 100 μg/ml survivin concentrations in the assay buffer (Fig. 2). Quantitative analysis of the fluorescent intensities of the specific and control antibodies for borealin, hSgo1l and hSgol2 are shown in Supplementary Fig. S1, S2 and S3, respectively.
Pre-staining of one of the PEPperCHIP® Peptide Microarrays was done with the secondary 6X His Tag Antibody DyLight680 antibody at a dilution of 1:1000 and with monoclonal anti-HA (12CA5)-DyLight800 control antibody at a dilution of 1:1000 to investigate background interactions with the protein-derived peptides that could interfere with the main assays. Subsequent incubation of other peptide microarray copies with survivin at concentrations of 1 µg/ml, 10 µg/ml and 100 µg/ml in incubation buffer was followed by staining with the secondary 6X His Tag Antibody DyLight680 (Rockland Immunochemicals) antibody and the monoclonal anti-HA (12CA5)-DyLight800 control antibody (Rockland Immunochemicals) as well as by read-out at scanning intensities of 7/7 (red/green). HA and His tag control peptides were simultaneously stained as internal quality control to confirm the assay quality and to facilitate grid alignment for data quantification. Read-out was performed with a LI-COR Odyssey Imaging System, while quantification of spot intensities and peptide annotation were done with PepSlide® Analyzer.

The target of test [3] is T2, human survivin (human, UniProt O15392 1-142, GREEN-MALEIMIDE (cysteine reactive) fluorescent label, in the MST experiments only).
T2 construct: survivin, human, 16 kDa; The His tag is detected on the array by a 6X His Tag antibody; for the MST no cleavage of the tag is told; On the array the protein was unlabelled, in the MST labelled on cysteine; source: E. coli BL21(DE3) star, purified (Ni2+ chelation chromatography, gel filtration)
T2 sequence (O15392 whole entry): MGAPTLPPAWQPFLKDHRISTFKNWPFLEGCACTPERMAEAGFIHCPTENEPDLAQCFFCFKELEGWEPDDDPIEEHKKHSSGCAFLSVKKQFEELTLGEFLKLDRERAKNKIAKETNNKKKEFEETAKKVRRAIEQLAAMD
As to the kind of experiment: peptide or protein array; PEPperCHIP microarray of overlapping printed peptides; incubated with survivin at 1, 10 and 100 µg/ml in incubation buffer; detected with 6X His Tag Antibody DyLight680. The conditions noted are these: both partners purified.

The target of test [4] is T2, human survivin. As to the kind of experiment: MST; labelled survivin held constant, serial dilution of the peptide; Buffer A (50 mM Tris pH 8.0, 150 mM NaCl, 1 mM DTT, 0.05% Tween); 5 min incubation; 24 °C; T-jump + thermophoresis; three dilution series. The conditions noted are these: both partners purified.
Test [5] deals with T2, human survivin. Put plainly: MST; labelled survivin held constant, serial dilution of the peptide; Buffer B (50 mM Tris pH 7.4, 150 mM NaCl, 10 mM MgCl2, 0.05% Tween-20, 1 mM DTT); 5 min incubation; 24 °C; T-jump + thermophoresis; three dilution series. As to conditions: both partners purified.
The target of test [6] is T2, human survivin. The description is as above. The conditions noted are these: both partners purified. The source holds these as a separate data set.
[7] abbreviates: 5 min incubation, median and HDI 95% interval of sampled posterior.

Where “and” joins values, the source holds several entries; their conditions need not be identical. Identical values can stand only once. Like-named read-outs stand apart in the source and are kept apart here. Peptide text beside a SMILES is read from it.

T1 sequence (O15392 whole entry): as above

`CSCC[C@H](NC(=O)[C@H](CCCNC(=N)N)NC(=O)[C@H](CCCCN)NC(=O)[C@H](CO)NC(=O)[C@H](CCCCN)NC(=O)[C@H](CCCNC(=N)N)NC(=O)[C@H](CCCNC(=N)N)NC(=O)[C@H](CC(N)=O)NC(=O)[C@H](C)NC(=O)[C@H](CCCCN)NC(=O)[C@H](CCCNC(=N)N)NC(=O)[C@H](CCCCN)NC(=O)[C@H](CCC(=O)O)NC(=O)[C@H](CCC(=O)O)NC(=O)[C@H](CCCNC(=N)N)NC(=O)[C@@H](N)CCCCN)C(=O)N[C@@H](CO)C(=O)N[C@@H](CCCCN)C(=O)N[C@@H](Cc1ccc(O)cc1)C(=O)N[C@@H](CCCCN)C(=O)N[C@@H](CCC(=O)O)C(=O)N[C@@H](CC(N)=O)C(=O)O` [hSgol1^291–312] (H-KREEKRKANRRKSKRMSKYKEN-OH): the equilibrium dissociation constant (Kd) stood at 80.7 µM at human survivin [1] (setting [7]); 53.6 µM at human survivin [1] (120 min incubation, median and HDI 95% interval, incubation time affected adversely the sample quality).

“EVSKIVTVSTGIKKK [other basic peptide on the microarray]”: at human survivin [2], the “microarray response to survivin (spot signal)” value (shortened to “microarray response to survivin”) is “did not react with survivin in a similar manner”.

As for “KTFRKVKDSSSEKKR [other basic peptide on the microarray]”, the “microarray response to survivin” value on human survivin [2] is on record as “did not react with survivin in a similar manner”.

In the case of “KVNKMTSKSKKRKTS [hSgol2 peptide, laser printed on microarray]”, the “microarray response to survivin” value on human survivin [2] is on record as “main responses with the clearest spot morphologies”.

Regarding “SPTDPKACNWKKYKF [other basic peptide on the microarray]”, the “microarray response to survivin” value on human survivin [2] was “did not react with survivin in a similar manner”.

For “DTQERKREEKRKANR [adjacent hSgol1 peptide, laser printed on microarray]”, the “microarray response to survivin” value at human survivin [2] is on record as “to some extent”.

As to `CSCC[C@H](NC(=O)[C@H](CCCCN)NC(=O)[C@H](CC(N)=O)NC(=O)[C@@H](NC(=O)[C@H](CCCCN)NC(=O)[C@H](CCCCN)NC(=O)[C@@H](NC(=O)[C@H](CCC(N)=O)NC(=O)[C@H](CS)NC(=O)[C@@H](N)CCC(=O)O)C(C)C)C(C)C)C(=O)N[C@H](C(=O)N[C@@H](CO)C(=O)N[C@@H](CCCCN)C(=O)N[C@@H](CO)C(=O)N[C@@H](CCCCN)C(=O)N[C@@H](CCCCN)C(=O)N[C@@H](CCCNC(=N)N)C(=O)N[C@@H](CCCCN)C(=O)N[C@H](C(=O)N[C@@H](CO)C(=O)O)[C@@H](C)O)[C@@H](C)O` [hSgol2^1066–1085] (H-ECQVKKVNKMTSKSKKRKTS-OH), on human survivin [1] (setting [7]), the Kd stood at 1.6 µM.

As for “ECQVKKVNKMTSKSK [hSgol2 peptide, laser printed on microarray]”, on human survivin [2], the “microarray response to survivin” value is listed as “main responses with the clearest spot morphologies”.

In the case of “KREEKRKANRRKSKR [basic hSgol1 peptide, laser printed on microarray]”, on human survivin [2], the “microarray response to survivin” value is recorded as “main responses with the clearest spot morphologies”.

“RKANRRKSKRMSKYK [basic hSgol1 peptide, laser printed on microarray]”: the “microarray response to survivin” value on human survivin [2] is listed as “main responses with the clearest spot morphologies”.

Consider “HQSSFLLSASKKKRI [other basic peptide on the microarray]”, for which, on human survivin [2], the “microarray response to survivin” value was “did not react with survivin in a similar manner”.

B1: hSgol1 array peptide KREEKRKANRRKSKR (peptide)
peptide: KREEKRKANRRKSKR
notes: human Shugoshin-like 1 (hSgol1), 15-mer of the overlapping peptide array; source: laser-printed on the PEPperCHIP peptide microarray (PEPperPRINT)
Turning to B1, the binding result with human survivin [3] is given as “binds”.

B2: borealin^6–20 peptide (peptide)
peptide: GSSRVAKTNSLRRRK
notes: borealin, human, residues 6-20; source: synthetic peptide (Genscript) for MST; laser-printed on the PEPperCHIP peptide microarray (PEPperPRINT)
On to B2, for which the Kd with human survivin [4] was 10.8 µM and 10.2 µM and 10 µM.

B3: hSgol2 array peptide ECQVKKVNKMTSKSK (peptide)
peptide: ECQVKKVNKMTSKSK
notes: human Shugoshin-like 2 (hSgol2), 15-mer of the overlapping peptide array; source: laser-printed on the PEPperCHIP peptide microarray (PEPperPRINT)
As to B3, in the test with human survivin [3], the binding result is listed as “binds”.

B4: hSgol2^1066–1085 peptide (peptide)
peptide: ECQVKKVNKMTSKSKKRKTS
notes: human Shugoshin-like 2 (hSgol2), residues 1066-1085; also called hSgol2 peptide; source: synthetic peptide (Genscript)
Turning to B4, in the test with human survivin [5], the Kd is 1.6 µM and 1.4 µM.

B5: hSgol1 array peptide RKANRRKSKRMSKYK (peptide)
peptide: RKANRRKSKRMSKYK
notes: as for B1
B5: the binding result in the test with human survivin [3] was “binds”.

B6: hSgol1^291–312 peptide (peptide)
peptide: KREEKRKANRRKSKRMSKYKEN
notes: human Shugoshin-like 1 (hSgol1), residues 291-312, with the KEN motif; also called hSgol1 peptide; source: synthetic peptide (Genscript)
As for B6, the Kd with human survivin [6] came to 80.9 µM.

B7: hSgol2 array peptide KVNKMTSKSKKRKTS (peptide)
peptide: KVNKMTSKSKKRKTS
notes: as for B3
Turning to B7, in the test with human survivin [3], the binding result is on record as “binds”.

Broadly, the Kd is the equilibrium constant for the complex coming apart.
